According to PubChem BioAssay (NCI):
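Five compound concentrations were applied to cells in 96-well plates for 48 hours; endpoints were derived by simple linear interpolation of the resulting dose-response curve. GI50 marks 50% less growth. Definition used: TGI = concentration required for complete inhibition of growth.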

Key:
Test in all cases: inhibition of tumour cell growth, NCI panel, 48 h; in the data active = GI50 below about 0.43 µM; inactive = the rest
TK-10 renal = system: TK-10 renal
UACC-257 melanoma = system: UACC-257 melanoma
SK-MEL-5 melanoma = system: SK-MEL-5 melanoma
SNB-75 CNS = system: SNB-75 CNS
RXF 393 renal = system: RXF 393 renal
SN12C renal = system: SN12C renal
SF-539 CNS = system: SF-539 CNS
OVCAR-8 ovarian = system: OVCAR-8 ovarian
ACHN renal = system: ACHN renal
SNB-19 CNS = system: SNB-19 CNS
OVCAR-4 ovarian = system: OVCAR-4 ovarian
COLO 205 colon = system: COLO 205 colon
SK-MEL-2 melanoma = system: SK-MEL-2 melanoma
KM12 colon = system: KM12 colon
IGROV1 ovarian = system: IGROV1 ovarian
SK-MEL-28 melanoma = system: SK-MEL-28 melanoma
MALME-3M melanoma = system: MALME-3M melanoma
HOP-92 NSCLC = system: HOP-92 NSCLC
OVCAR-5 ovarian = system: OVCAR-5 ovarian
HCT-15 colon = system: HCT-15 colon
LOX IMVI melanoma = system: LOX IMVI melanoma
786-0 renal = system: 786-0 renal
UO-31 renal = system: UO-31 renal
HT29 colon = system: HT29 colon
RPMI-8226 leukemia = system: RPMI-8226 leukemia
U251 CNS = system: U251 CNS
CAKI-1 renal = system: CAKI-1 renal
MCF7 breast = system: MCF7 breast
SF-268 CNS = system: SF-268 CNS
NCI-H23 lung = system: NCI-H23 lung
NCI/ADR-RES ovarian = system: NCI/ADR-RES ovarian
SR leukemia = system: SR leukemia
BT-549 breast = system: BT-549 breast
HS 578T breast = system: HS 578T breast
HCC-2998 colon = system: HCC-2998 colon
M14 melanoma = system: M14 melanoma
EKVX NSCLC = system: EKVX NSCLC
A549 NSCLC = system: A549 NSCLC
NCI-H226 lung = system: NCI-H226 lung
HCT-116 colon = system: HCT-116 colon
SK-OV-3 ovarian = system: SK-OV-3 ovarian
MOLT-4 leukemia = system: MOLT-4 leukemia
UACC-62 melanoma = system: UACC-62 melanoma
PC-3 prostate = system: PC-3 prostate
HL-60(TB) leukemia = system: HL-60(TB) leukemia
SW-620 colon = system: SW-620 colon
OVCAR-3 ovarian = system: OVCAR-3 ovarian
K-562 leukemia = system: K-562 leukemia
NCI-H460 lung = system: NCI-H460 lung
SF-295 CNS = system: SF-295 CNS
MDA-MB-435 = system: MDA-MB-435
NCI-H522 lung = system: NCI-H522 lung
MDA-MB-231 breast = system: MDA-MB-231 breast
DU-145 prostate = system: DU-145 prostate
HOP-62 NSCLC = system: HOP-62 NSCLC
CCRF-CEM leukemia = system: CCRF-CEM leukemia

C=C1C(O)C2C(=C(CCC3CC3)C13CC3)C(=O)C(C)(C)C2O (configuration not stated)
> 100 µM: TGI (TK-10 renal) | TGI (UACC-257 melanoma) | TGI (SK-MEL-5 melanoma) | TGI (SNB-75 CNS) | TGI (RXF 393 renal) | TGI (SN12C renal) | TGI (SF-539 CNS) | TGI (OVCAR-8 ovarian) | TGI (ACHN renal) | TGI (SNB-19 CNS) | TGI (OVCAR-4 ovarian) | TGI (COLO 205 colon) | TGI (SK-MEL-2 melanoma) | TGI (KM12 colon) | TGI (IGROV1 ovarian) | TGI (SK-MEL-28 melanoma) | TGI (MALME-3M melanoma) | TGI (HOP-92 NSCLC) | TGI (OVCAR-5 ovarian) | TGI (HCT-15 colon) | TGI (LOX IMVI melanoma) | TGI (786-0 renal) | TGI (UO-31 renal) | TGI (HT29 colon) | TGI (RPMI-8226 leukemia) | TGI (U251 CNS) | TGI (CAKI-1 renal) | TGI (MCF7 breast) | TGI (SF-268 CNS) | TGI (NCI-H23 lung) | TGI (NCI/ADR-RES ovarian) | TGI (SR leukemia) | TGI (BT-549 breast) | TGI (HS 578T breast) | TGI (HCC-2998 colon) | TGI (M14 melanoma) | TGI (EKVX NSCLC) | TGI (A549 NSCLC) | TGI (NCI-H226 lung) | TGI (HCT-116 colon) | TGI (SK-OV-3 ovarian) | TGI (MOLT-4 leukemia) | TGI (UACC-62 melanoma) | TGI (PC-3 prostate) | TGI (HL-60(TB) leukemia) | TGI (SW-620 colon) | TGI (OVCAR-3 ovarian) | TGI (K-562 leukemia) | TGI (NCI-H460 lung) | TGI (SF-295 CNS) | TGI (MDA-MB-435) | TGI (NCI-H522 lung) | TGI (DU-145 prostate) | TGI (HOP-62 NSCLC) | TGI (CCRF-CEM leukemia)
99 µM: TGI (MDA-MB-231 breast)
inactive: GI50 (TK-10 renal) > 100 µM | GI50 (UACC-257 melanoma) 71.3 µM | GI50 (SK-MEL-5 melanoma) 42.1 µM | GI50 (SNB-75 CNS) 23.2 µM | GI50 (RXF 393 renal) 32.9 µM | GI50 (SN12C renal) 71.3 µM | GI50 (SF-539 CNS) > 100 µM | GI50 (OVCAR-8 ovarian) > 100 µM | GI50 (ACHN renal) > 100 µM | GI50 (SNB-19 CNS) > 100 µM | GI50 (OVCAR-4 ovarian) > 100 µM | GI50 (COLO 205 colon) > 100 µM | GI50 (SK-MEL-2 melanoma) > 100 µM | GI50 (KM12 colon) > 100 µM | GI50 (IGROV1 ovarian) > 100 µM | GI50 (SK-MEL-28 melanoma) 76.2 µM | GI50 (MALME-3M melanoma) > 100 µM | GI50 (HOP-92 NSCLC) 34.2 µM | GI50 (OVCAR-5 ovarian) > 100 µM | GI50 (HCT-15 colon) > 100 µM | GI50 (LOX IMVI melanoma) > 100 µM | GI50 (786-0 renal) > 100 µM | GI50 (UO-31 renal) > 100 µM | GI50 (HT29 colon) > 100 µM | GI50 (RPMI-8226 leukemia) 43.7 µM | GI50 (U251 CNS) 89.9 µM | GI50 (CAKI-1 renal) 45.8 µM | GI50 (MCF7 breast) 58.7 µM | GI50 (SF-268 CNS) > 100 µM | GI50 (NCI-H23 lung) 76.2 µM | GI50 (NCI/ADR-RES ovarian) > 100 µM | GI50 (SR leukemia) 32.1 µM | GI50 (BT-549 breast) > 100 µM | GI50 (HS 578T breast) 25.7 µM | GI50 (HCC-2998 colon) > 100 µM | GI50 (M14 melanoma) > 100 µM | GI50 (EKVX NSCLC) > 100 µM | GI50 (A549 NSCLC) > 100 µM | GI50 (NCI-H226 lung) > 100 µM | GI50 (HCT-116 colon) > 100 µM | GI50 (SK-OV-3 ovarian) 30.1 µM | GI50 (MOLT-4 leukemia) 44.3 µM | GI50 (UACC-62 melanoma) 87.4 µM | GI50 (PC-3 prostate) 92.3 µM | GI50 (HL-60(TB) leukemia) > 100 µM | GI50 (SW-620 colon) > 100 µM | GI50 (OVCAR-3 ovarian) 59.5 µM | GI50 (K-562 leukemia) 61.3 µM | GI50 (NCI-H460 lung) 80.9 µM | GI50 (SF-295 CNS) 55.8 µM | GI50 (MDA-MB-435) > 100 µM | GI50 (NCI-H522 lung) 60.4 µM | GI50 (MDA-MB-231 breast) 29.1 µM | GI50 (DU-145 prostate) > 100 µM | GI50 (HOP-62 NSCLC) > 100 µM | GI50 (CCRF-CEM leukemia) > 100 µM
